Reference: PubChem BioAssay (NCI)
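Interpolation was linear, between the two tested concentrations surrounding the appropriate level; five concentrations were tested over 48 hours in 96-well plates. Abbreviation: GI50, concentration required for 50% inhibition of growth. TGI marks complete inhibition of growth.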

What was measured:
Assay in all cases: NCI anticancer screen, dose series, 48 h
[1] = system: M14 melanoma
[2] = system: SK-MEL-5 melanoma
[3] = system: K-562 leukemia
[4] = system: CCRF-CEM leukemia
[5] = system: SF-295 CNS
[6] = system: UACC-62 melanoma
[7] = system: OVCAR-4 ovarian
[8] = system: A549 NSCLC
[9] = system: HT29 colon
[10] = system: BT-549 breast

Compound: O=C(CCC(=O)Nc1ccc(Cl)c(Cl)c1)CC(=O)c1ccc2ccccc2c1
- TGI [1]: > 100 µM
- TGI [2]: > 100 µM
- TGI [3]: > 100 µM
- TGI [4]: > 100 µM
- TGI [5]: > 100 µM
- TGI [6]: > 100 µM
- TGI [7]: > 100 µM
- TGI [8]: > 100 µM
- TGI [9]: > 100 µM

Compound: COc1ccc(Nc2nc3cc(C(F)(F)F)ccc3nc2-c2ccccc2)cc1OC
- TGI [1]: > 100 µM
- TGI [2]: > 100 µM
- TGI [3]: > 100 µM
- TGI [4]: > 100 µM
- TGI [5]: 53.3 µM
- TGI [6]: > 100 µM
- TGI [7]: > 100 µM
- TGI [8]: > 100 µM
- TGI [9]: > 100 µM

Compound: COC(=O)Oc1nn(C(=O)OC)c(=O)c2ccccc12
- TGI [1]: > 100 µM
- TGI [2]: > 100 µM
- TGI [3]: > 100 µM
- TGI [4]: > 100 µM
- TGI [5]: > 100 µM
- TGI [10]: > 100 µM
- TGI [6]: > 100 µM
- TGI [8]: > 100 µM

Compound: CN1C(=O)CC2(C)c3cc(O)cc(Br)c3N(C)C12 (centres undefined)
- TGI [1]: > 100 µM
- TGI [2]: > 100 µM
- TGI [3]: > 100 µM
- TGI [4]: > 100 µM
- TGI [5]: > 100 µM
- TGI [6]: > 100 µM
- TGI [8]: > 100 µM
- TGI [9]: > 100 µM

Compound: C/C(CCn1[nH]c(=O)ccc1=O)=N\NC(=O)C(N)=O
- TGI [1]: > 100 µM
- TGI [2]: > 100 µM
- TGI [3]: > 100 µM
- TGI [5]: > 100 µM
- TGI [6]: > 100 µM
- TGI [7]: > 100 µM
- TGI [8]: > 100 µM
- TGI [9]: > 100 µM

Compound: O=C1C(=c2ccc(=C3C(=O)c4ccc([N+](=O)[O-])cc4[N+]3=O)cc2)N([O-])c2cc([N+](=O)[O-])ccc21
- GI50 [1]: > 100 µM
- TGI [1]: > 100 µM
- GI50 [2]: > 100 µM
- TGI [2]: > 100 µM
- GI50 [3]: > 100 µM
- TGI [3]: > 100 µM
- GI50 [4]: > 100 µM
- TGI [4]: > 100 µM
- GI50 [7]: > 100 µM
- TGI [7]: > 100 µM
- GI50 [8]: > 100 µM
- TGI [8]: > 100 µM
- GI50 [9]: > 100 µM
- TGI [9]: > 100 µM

Compound: O=C(O)CN(c1ccccc1)S(=O)(=O)c1cccc([N+](=O)[O-])c1
- TGI [1]: > 100 µM
- TGI [2]: > 100 µM
- TGI [3]: > 100 µM
- TGI [4]: > 100 µM
- TGI [5]: > 100 µM
- TGI [6]: > 100 µM
- TGI [7]: > 100 µM
- TGI [8]: > 100 µM
- TGI [9]: > 100 µM

Compound: Cc1ccc([Se](=C(C(=O)c2ccccc2)C(=O)c2ccccc2)c2ccc(C)cc2)cc1
- TGI [1]: > 100 µM
- TGI [2]: 37.2 µM
- TGI [3]: 84.5 µM
- TGI [5]: 66.5 µM
- TGI [6]: 51.5 µM
- TGI [7]: 50.1 µM
- TGI [8]: > 100 µM
- TGI [9]: 35.2 µM

Compound: COc1cccc(C=O)c1C(=O)c1cc(O)ccc1O
- TGI [1]: 35 µM
- TGI [2]: > 100 µM
- TGI [4]: 80.2 µM
- TGI [5]: > 100 µM
- TGI [6]: > 100 µM
- TGI [7]: 35.7 µM
- TGI [8]: > 100 µM
- TGI [9]: > 76.3 µM

Compound: COC(=O)c1cc(NC(=O)c2cc(NC(=O)c3cc([N+](=O)[O-])n(C)c3)cn2C)cn1C
- GI50 [1]: 15.2 µM
- TGI [1]: > 100 µM
- GI50 [2]: 5.03 µM
- TGI [2]: 59 µM
- GI50 [3]: > 100 µM
- TGI [3]: > 100 µM
- GI50 [4]: 54 µM
- TGI [4]: > 100 µM
- GI50 [5]: 32.8 µM
- TGI [5]: > 100 µM
- GI50 [10]: 40.1 µM
- TGI [10]: > 100 µM
- GI50 [6]: 23.8 µM
- TGI [6]: > 100 µM
- GI50 [8]: 64.1 µM
- TGI [8]: > 100 µM
- GI50 [9]: 7.74 µM
- TGI [9]: 31 µM

Compound: O=[N+]([O-])c1ccc(/C=C/c2nc3ccc(Cl)cc3[nH]2)cc1
- GI50 [1]: > 100 µM
- TGI [1]: > 100 µM
- GI50 [2]: 31.6 µM
- TGI [2]: > 100 µM
- GI50 [3]: 5.99 µM
- TGI [3]: > 100 µM
- GI50 [5]: 39.9 µM
- TGI [5]: > 100 µM
- GI50 [6]: > 100 µM
- TGI [6]: > 100 µM
- GI50 [7]: 74 µM
- TGI [7]: > 100 µM
- GI50 [8]: 37.8 µM
- TGI [8]: > 100 µM
- GI50 [9]: 17.8 µM
- TGI [9]: > 100 µM

Compound: COc1cc2c3c(n(CCCN(CCCN(CCCn4c5c(c6ccccc6c4=O)C(=O)c4ccccc4-5)C(=O)OC(C)(C)C)C(=O)OC(C)(C)C)c(=O)c2cc1OC)-c1cc2c(cc1C3=O)OCO2
- GI50 [1]: > 100 µM
- TGI [1]: > 100 µM
- GI50 [2]: > 100 µM
- TGI [2]: > 100 µM
- GI50 [3]: > 100 µM
- TGI [3]: > 100 µM
- GI50 [5]: > 100 µM
- TGI [5]: > 100 µM
- GI50 [10]: 34.7 µM
- TGI [10]: > 100 µM
- GI50 [6]: > 100 µM
- TGI [6]: > 100 µM
- GI50 [7]: > 100 µM
- TGI [7]: > 100 µM
- GI50 [8]: > 100 µM
- TGI [8]: > 100 µM
- GI50 [9]: > 100 µM
- TGI [9]: > 100 µM

Compound: [O-]/N=[N+](/[O-])C1CCCCC1=[N+]1CCOCC1 (centres undefined)
- TGI [1]: > 100 µM
- TGI [3]: > 100 µM
- TGI [4]: > 100 µM
- TGI [5]: > 100 µM
- TGI [6]: > 100 µM
- TGI [7]: > 100 µM
- TGI [8]: > 100 µM
- TGI [9]: > 100 µM

Compound: O=C(C=Nc1ccccc1C(=O)[O-])c1cccs1.O=C(C=Nc1ccccc1C(=O)[O-])c1cccs1.[Ni+2]
- TGI [1]: > 100 µM
- TGI [3]: > 100 µM
- TGI [4]: > 100 µM
- TGI [5]: > 100 µM
- TGI [6]: > 100 µM
- TGI [8]: > 100 µM
- TGI [9]: > 100 µM

Compound: COc1cc2c(cc1OC)C(C#N)N(C(=O)c1ccccc1)C=C2OC(=O)c1ccccc1 (centres undefined)
- TGI [1]: > 100 µM
- TGI [2]: 44.9 µM
- TGI [3]: > 100 µM
- TGI [4]: > 100 µM
- TGI [5]: 45.4 µM
- TGI [6]: 45 µM
- TGI [9]: > 100 µM

Compound: Cc1cc(=O)[nH]c(CNC(=O)c2ccc3ccccc3c2)n1
- TGI [1]: > 100 µM
- TGI [2]: > 100 µM
- TGI [3]: > 100 µM
- TGI [4]: > 100 µM
- TGI [5]: > 100 µM
- TGI [6]: > 100 µM
- TGI [7]: > 100 µM
- TGI [8]: > 100 µM
- TGI [9]: > 100 µM

Compound: CCc1ccccc1NC(=O)C(=O)C(C#N)c1ccccc1Cl (centres undefined)
- TGI [1]: > 100 µM
- TGI [2]: > 100 µM
- TGI [4]: > 100 µM
- TGI [5]: > 100 µM
- TGI [6]: > 100 µM
- TGI [7]: > 100 µM
- TGI [8]: > 100 µM
- TGI [9]: > 100 µM

Compound: O=Cc1cccc2ccc3ccccc3c12
- TGI [1]: 49.4 µM
- TGI [2]: 39.6 µM
- TGI [5]: 50.2 µM
- TGI [10]: 96.9 µM
- TGI [6]: 76 µM
- TGI [8]: 85.3 µM
- TGI [9]: 54.2 µM

Compound: O=C1/C(=C/c2ccc([N+](=O)[O-])s2)Oc2cc(Cl)ccc21
- GI50 [2]: 1.2 µM
- TGI [2]: 2.57 µM
- GI50 [3]: 0.296 µM
- TGI [3]: 1.46 µM
- GI50 [4]: 0.325 µM
- TGI [4]: 1.48 µM
- GI50 [5]: 4.46 µM
- TGI [5]: > 100 µM
- GI50 [10]: 0.698 µM
- TGI [10]: 2.09 µM
- GI50 [6]: 0.998 µM
- TGI [6]: 3.14 µM
- GI50 [8]: 2.67 µM
- TGI [8]: > 100 µM

Compound: COC(=O)C1CSC(c2csc(CCN)n2)=N1 (centres undefined)
- TGI [1]: > 100 µM
- TGI [2]: > 100 µM
- TGI [3]: > 100 µM
- TGI [4]: > 100 µM
- TGI [5]: > 100 µM
- TGI [6]: > 100 µM
- TGI [7]: > 100 µM
- TGI [8]: > 100 µM
- TGI [9]: > 100 µM

Compound: O=C(COc1ccccc1Cl)N1N=C(c2ccccc2)CC1(O)c1ccccc1 (centres undefined)
- TGI [1]: 31.9 µM
- TGI [3]: 54.9 µM
- TGI [5]: 34.8 µM
- TGI [6]: 33.5 µM
- TGI [7]: 23.4 µM
- TGI [8]: 44.4 µM
- TGI [9]: 30.7 µM
